The test system of this test is oxidized collagen IV. As to the kind of experiment: Binding to H2O2 treated collagen IV (decrease in <5 kDa filtrate by LCMS). Further details: species or system human. Conditions: for Binding to collagen, result in words: oxidized forms of collagen. As for the experimental part: Collagen source: 1 mg/ml Collagen IV form human placenta in 0.25% acetic acid (Sigma™). The collagen was oxidixed with 500 μM H2O2 in 1×PBS for 1 hour at 37° C. The oxidized collagen IV (final=0.2 mg/ml) was then incubated with 2 μM DA-DKP or 2 μM NAT in PBS for 1 hour at 37° C. At the end of the incubation, the <5 kDa fraction was isolated by a VIVASPIN® 2 microcentrifugal filter having a molecular weight cutoff of 5,000. The <5 kDa fraction was analyzed for DA-DKP and/or NAT content using a liquid chromatograph-mass spectrometery (LCMS) method for DA-DKP analysis.

`C[C@@H]1NC(=O)[C@H](CC(=O)O)NC1=O` [DA-DKP, aspartyl-alanyl diketopiperazine]: the “Binding to collagen, result in words” value was “bind to oxidized forms of collagen”. The same compound had an Average % decrease (2 μM, oxidized collagen IV 0.2 mg/ml, 1 hour at 37° C., alone) of 26.0%.

On to `CC(=O)N[C@@H](Cc1c[nH]c2ccccc12)C(=O)O` [NAT, N-acetyl-tryptophan], for which the “Binding to collagen, result in words” value is on record as “bind to oxidized forms of collagen”.

Values taken from patent US9060968B2, “Treatment of degenerative joint disease” (AMPIO PHARMACEUTICALS, INC., priority 2011, dated 2015).
